Experimental data from PMC6598759, “In vitro genotoxicity of nitroimidazoles as a tool in the search of new trypanocidal agents” (Memórias do Instituto Oswaldo Cruz, 2019).
Read-outs that look alike come from different tables or passages of the source.

Legend:
[1] = test system: whole human blood cells (WHBC); experiment: In vitro cytokinesis-block micronucleus assay (CBMN) with whole human blood cells
Method: In vitro cytokinesis-block micronucleus assay (CBMN) with whole human blood cells (WHBC) - Heparinised WHBC samples were obtained by venipuncture from volunteers as described above. […] WHBC cultures exposed to mitomycin C (MMC) (1.0 µg/mL in water) (Bristol, USA) for 2 h or to N-deacetyl-N-methylcolchicine in water (Demecolcine: Sigma-Aldrich) 0.02 µg/mL for 28 h were used as positive control cultures. After the treatment, the WHBC cultures were centrifuged (900 rpm, 10 min) and washed with 5 mL PBS. […] CytB has cytokinesis-block activity leading to the formation of binucleate cells. […] The fixed cell suspension was dropped on a clean glass slide and the slide was air-dried on a heating plate (60 °C). Air-dried slides were stained with 60 µg/mL acridine orange in Sörensen buffer (0.03 M KH2PO4, 0.03 M Na2HPO4) for 3s, then they were embedded in distilled water and covered with a coverslip. MN showing bright green fluorescence were analysed using a fluorescence microscope at 400 X magnification. MN were scored in 2,000 binucleated cells (BNC) for culture and the number of the micronucleate cells (MNC) in 2,000 BNC was determined. Cytotoxicity was measured using the cytokinesis-block proliferation index (CBPI) and the replication index (RI) which were calculated from 500 cells. The CBPI indicates the average number of nuclei per cell, and may be used to calculate cell proliferation. The RI indicates the relative number of cell cycles per cell during the period of exposure to cytoB in treated cultures compared to control cultures and can be used to calculate the % cytostasis. CBPI was calculated according to the formula: CBPI = [(No. mononucleate cells) + (2 x No. binucleate cells) + (3 x No. multinucleate cells)] / N, where N indicates the total number of cells scored. RI (%) was calculated according to the formula:
RI %=((No. binucleate cells) + (2 x No. multinucleate cells)) ÷ (Total number of cells)T/((No. binucleate cells) + (2 x No. multinucleate cells)) ÷ (Total number of cells)C x 100
where T indicates treated cultures and C control cultures
Cytotoxicity was evidenced in the occurrence of reduction in CBPI or RI of cultures treated by test substances when compared to control cultures. The measurement of cytotoxicity was used to select the concentrations of the test substance to be analysed for the presence of MN. […] However, it was adopted in this work as the maximum concentration in CBMN one that induced a proliferation inhibition not exceeding about 50% established by ICH S2 (R1) for lymphocyte cultures.
The chi-square test for trend was performed to analyse if the increase of MNC was concentration-related.[30]

[2] = test system: bloodstream trypomastigotes form Y strain of T. cruzi; conditions: read-out: IC50/24 h (concentration that produces 50% lysis of the parasites), trypomastigote forms; cited from earlier work
[3] = test system: whole human blood cells (WHBC); conditions: cited from earlier work; for percentage decrease in cell viability: 2 h
[4] = test system: whole human blood cells (WHBC); conditions: 149-6,400 µM, 2 h, p > 0.1; cited from earlier work

Which results are given for `Cn1c([N+](=O)[O-])cnc1-c1nnc(N)[nH]1` [Compound 4]?
CBPI ([1]; 150 µM, 4 h): 1.220; NMNC/2000 binucleated cells ([1]; 150 µM, 4 h): 28; RI (%) ([1]; 150 µM, 4 h): 106%; CBPI ([1]; 640 µM, 4 h): 1.230; NMNC/2000 binucleated cells ([1]; 640 µM, 4 h): 36; RI (%) ([1]; 640 µM, 4 h): 107%; CBPI ([1]; 1,600 µM, 4 h): 1.218; NMNC/2000 binucleated cells ([1]; 1,600 µM, 4 h): 44; RI (%) ([1]; 1,600 µM, 4 h): 76%; CBPI ([1]; 4,000 µM, 4 h): 1.054; RI (%) ([1]; 4,000 µM, 4 h): 22%; CBPI ([1]; 10,000 µM, 4 h): 1.052; RI (%) ([1]; 10,000 µM, 4 h): 23%; maximum concentration used in MN analysis (inducing in the maximum 50% reduction of CBPI or RI) ([1]; 4 h, relative to solvent-control): 1,600 μM; concentrations with significant mutagenic effect (increase of MNC) ([1]; 4 h, p < 0.01 for 3, p < 0.05 for 4 and 7): 1,600 μM; result in the CBMN ([1]; overall call): clastogenic and/or aneugenic; IC50 [2]: 257 ± 53 µM; percentage decrease in cell viability ([3]; 149 µM): 1.0%; percentage decrease in cell viability ([3]; 238 µM): 1.0%; percentage decrease in cell viability ([3]; 382 µM): 1.0%; percentage decrease in cell viability ([3]; 610 µM): 0%; percentage decrease in cell viability ([3]; 1,562 µM): 1.0%; percentage decrease in cell viability ([3]; 2,500 µM): 1.0%; percentage decrease in cell viability ([3]; 4,000 µM): 0%; percentage decrease in cell viability ([3]; 6,400 µM): 0%; lethality variation range ([3]; 149-6,400 µM, 2 h at 37 °C, compared to solvent-control): 1-4%; DNA strand breaks compared to solvent-control [4]: did not cause DNA strand breaks
